Laboratory results taken from patent US20190185567A1, “COMBINATIONS FOR THE TREATMENT OF CANCER” (IGNYTA, INC., priority 2016, published 2019).

Assays:
[1] = test system: hematopoietic cell subsets; experiment: Hematopoietic cell subset mean percentages in tumor and spleen, subjective comparison to the Control Group; format: in vivo, Balb/c mice; conditions: once daily (Days 3-17); for CD45+ cells that expressed PD-L1, increase vs Control Group: spleen
4T1-Luc2-1A4 cells = experiment: 4T1-Luc2-1A4 mammary fat pad tumor model: tumor burden by caliper and BLI, metastases; format: in vivo, Balb/c mice; conditions: once daily for 15 days (Days 3-17); for Day 14 T/C (whole body BLI) / Day 14 median T/C (caliper measurements): p>0.05
Experimental: Female Envigo Balb/c mice (BALB/cAnNHsd) were used in this study. They were 6-7 weeks old on day 1 of the experiment. The animals were fed irradiated Harlan 2918.15 Rodent Diet and water ad libitum. Animals were housed in static cages with Bed-O'Cobs™ bedding inside Biobubble® Clean Rooms that provide H.E.P.A filtered air into the bubble environment at 100 complete air changes per hour. All treatments, imaging, body weight determinations, and tumor measurements were carried out in the bubble environment. The environment was controlled to a temperature range of 70°±2° F. and a humidity range of 30-70%.
4T1-Luc2-1A4 cells were obtained from PerkinElmer. They were grown in RPMI 1640 medium which was modified with 1% 100 mM Na pyruvate, 1% 1M HEPES buffer, 2.5 g/L glucose solution and supplemented with 10% non-heat-inactivated Fetal Bovine Serum (FBS) and 1% 100X Penicillin/Streptomycin/L-Glutamine (PSG). The growth environment was maintained in an incubator with a 5% CO2 atmosphere at 37° C. When expansion was complete, the cells (passage 5) were trypsinized using 0.25% trypsin-EDTA solution. Following cell detachment, the trypsin was inactivated by dilution with complete growth medium and any clumps of cells were separated by pipetting. The cells were centrifuged at 200 rcf for 8 minutes at 8° C., the supernatant was aspirated, and the pellet was re-suspended in cold Dulbecco's Phosphate Buffered Saline (DPBS) by pipetting. An aliquot of the homogeneous cell suspension was diluted in a trypan blue solution and counted using a Luna automated cell counter. The pre-implantation cell viability was 95%. The cell suspension was centrifuged at 200 rcf for 8 minutes at 8° C. The supernatant was aspirated and the cell pellet was re-suspended in cold 50% serum-free medium 50% Matrigel® to generate a final concentration of 1.0E+07 trypan-excluding cells/mL. The cell suspension was maintained on wet ice during implantation. Following implantation, an aliquot of the remaining cells was diluted with a trypan blue solution and counted to determine the post-implantation cell viability (95%).
Test animals were implanted subcutaneously into the mammary fat pad (MFP#4) on Day 0 with 5.0E+05 cells in 50 μL of serum free media in 50% Matrigel® using a 27-gauge needle and 1 mL syringe.
All mice were sorted into study groups based on body weight. The mice were distributed to ensure that the mean body weight for all groups was within 10% of the overall mean for the study population (group range 16.8-17.2 g). Treatment began on Day 3, prior to the tumors being palpable. All mice were dosed 0.2 mL/20 g. • Group 1: Vehicle Control (50% PEG400; 50% oleic acid) PO, once daily for 15 days (Days 3-17); • Group 2: N-[4-[(6,7-dimethoxy-4-quinolinyl)oxy]-3-fluorophenyl]-3-(4-fluorophenyl)-1,2,3,4-tetrahydro-1-(1-methylethyl)-2,4-dioxo-5-pyrimidinecarboxamide, 30 mg/kg PO, once daily for 15 days (Days 3-17); • Group 3: N-[4-[(6,7-dimethoxy-4-quinolinyl)oxy]-3-fluorophenyl]-3-(4-fluorophenyl)-1,2,3,4-tetrahydro-1-(1-methylethyl)-2,4-dioxo-5-pyrimidinecarboxamide, 10 mg/kg PO, once daily for 15 days (Days 3-17); • Group 4: N-[4-[(6,7-dimethoxy-4-quinolinyl)oxy]-3-fluorophenyl]-3-(4-fluorophenyl)-1,2,3,4-tetrahydro-1-(1-methylethyl)-2,4-dioxo-5-pyrimidinecarboxamide, 1 mg/kg PO, once daily for 15 days (Days 3-17); • Group 5: anti-CTLA-4 clone 9D9 antibody, 10 mg/kg IP, every third day for 2 treatments, then a 3 day rest for 2.5 weeks (Days 3, 6, 10, 13, 17) • Group 6: anti-CTLA-4 clone 9D9 antibody, 10 mg/kg IP, every third day for 2 treatments, then a 3 day rest for 2.5 weeks (Days 3, 6, 10, 13, 17), plus N-[4-[(6,7-dimethoxy-4-quinolinyl)oxy]-3-fluorophenyl]-3-(4-fluorophenyl)-1,2,3,4-tetrahydro-1-(1-methylethyl)-2,4-dioxo-5-pyrimidinecarboxamide, 30 mg/kg PO, once daily for 15 days (Days 3-17). […]

[2] = Assessment of side effects (tolerability, mortality, body weight); format: in vivo; conditions: once daily for 15 days (Days 3-17); for mean body weight loss: highest at study termination
Experimental: Animals were weighed on each day of treatment. Individual body weights were recorded three times weekly.
In this report, a dosage level is described as tolerated if treatment-related weight loss (during and two weeks after treatment) is <20% and mortality during this period in the absence of potentially lethal tumor burdens is <10%.
Upon death or euthanasia, all animals were necropsied to provide a general assessment of potential cause of death and perhaps target organs for toxicity. The presence or absence of metastases was also noted.

Structure (SMILES): COc1cc2nccc(Oc3ccc(NC(=O)c4cn(C(C)C)c(=O)n(-c5ccc(F)cc5)c4=O)cc3F)c2cc1OC [N-[4-[(6,7-dimethoxy-4-quinolinyl)oxy]-3-fluorophenyl]-3-(4-fluorophenyl)-1,2,3,4-tetrahydro-1-(1-methylethyl)-2,4-dioxo-5-pyrimidinecarboxamide]
- NK cells that produced IFN-γ upon ex-vivo re-stimulation, increase vs Control Group ([1]; NK cells isolated from spleens, 30 mg/kg PO): 22%
- NK cells that produced IFN-γ upon ex-vivo re-stimulation, increase vs Control Group ([1]; NK cells isolated from tumors, 30 mg/kg PO): 75%
- CD45+ cells that expressed PD-L1, increase vs Control Group ([1]; 10 mg/kg PO): 8%
- CD45+ cells that expressed PD-L1, increase vs Control Group ([1]; 30 mg/kg PO): 16%
- CD45+ cells expressing PD-L1, reduction vs Control Group ([1]; tumor, 1 mg/kg PO): 14%
- CD4+ T subset as a percent of total T cells, reduction vs Control Group ([1]; tumor, 10 mg/kg PO): 51%
- CD45+ cells expressing PD-L1, reduction vs Control Group ([1]; tumor, 10 mg/kg PO): 5%
- Treg subset as a percent of total T cells, reduction vs Control Group ([1]; tumor, 10 mg/kg PO): 61%
- Tumor-derived cells that expressed CD45, increase vs Control Group ([1]; tumor, 10 mg/kg PO): 18%
- CD4+ T subset as a percent of total T cells, reduction vs Control Group ([1]; tumor, 30 mg/kg PO): 54%
- G-MDSC subset, reduction vs Control Group ([1]; tumor, 30 mg/kg PO): 18%
- M2 MAC subset, increase vs Control Group ([1]; tumor, 30 mg/kg PO): 72%
- Treg subset as a percent of total T cells, reduction vs Control Group ([1]; tumor, 30 mg/kg PO): 69%
- Tumor-derived cells that expressed CD45, increase vs Control Group ([1]; tumor, 30 mg/kg PO): 14%
- incidence of ex vivo lung metastases (4T1-Luc2-1A4 cells; 1 mg/kg PO): 100%
- tumor free survivors (4T1-Luc2-1A4 cells; 1 mg/kg PO): 0%
- incidence of axillary lymph node metastases based on in vivo imaging (4T1-Luc2-1A4 cells; 1 mg/kg PO, 8/14): 57%
- Day 14 T/C (whole body BLI) (4T1-Luc2-1A4 cells; 1 mg/kg PO): 139%
- Day 14 median T/C (caliper measurements) (4T1-Luc2-1A4 cells; 1 mg/kg PO): 131%
- incidence of ex vivo lung metastases (4T1-Luc2-1A4 cells; 10 mg/kg PO): 100%
- tumor free survivors (4T1-Luc2-1A4 cells; 10 mg/kg PO): 0%
- incidence of axillary lymph node metastases based on in vivo imaging (4T1-Luc2-1A4 cells; 10 mg/kg PO, 2/14): 14%
- Day 14 T/C (whole body BLI) (4T1-Luc2-1A4 cells; 10 mg/kg PO): 133%
- Day 14 median T/C (caliper measurements) (4T1-Luc2-1A4 cells; 10 mg/kg PO): 100%
- incidence of ex vivo lung metastases (4T1-Luc2-1A4 cells; 30 mg/kg PO): 100%
- tumor free survivors (4T1-Luc2-1A4 cells; 30 mg/kg PO): no tumor free survivors
- incidence of axillary lymph node metastases based on in vivo imaging (4T1-Luc2-1A4 cells; 30 mg/kg PO, 3/14): 21%
- Day 14 T/C (whole body BLI) (4T1-Luc2-1A4 cells; 30 mg/kg PO): 54%
- Day 14 median T/C (caliper measurements) (4T1-Luc2-1A4 cells; 30 mg/kg PO): 55%
- tolerability ([2]; 1 mg/kg PO): well-tolerated
- treatment-related mortality ([2]; 1 mg/kg PO): no treatment-related mortality
- mean body weight loss ([2]; 1 mg/kg PO): 2.1%
- tolerability ([2]; 10 mg/kg PO): well-tolerated
- treatment-related mortality ([2]; 10 mg/kg PO): no treatment-related mortality
- mean body weight loss ([2]; 10 mg/kg PO): 4.2%
- body weight change ([2]; 30 mg/kg PO): body weight gain
- tolerability ([2]; 30 mg/kg PO): well-tolerated
- treatment-related mortality ([2]; 30 mg/kg PO): no treatment-related mortality
